Test results as given in patent publication US9290507B2, “B-RAF kinase inhibitors” (Boehringer Ingelheim International GmbH, priority 2010, dated 2016).

Target: B-Raf (V600E)-kinase (Homo sapiens (Human), UniProt P15056, V600E)
Assay: Kinase test B-Raf (V600E)
Assay type: biochemical
Details: 1 h preincubation, 250 μM ATP
Method: In a dilution series 10 μL/well of test substance solution are placed in a multiwell plate. The dilution series is selected so that generally a range of concentrations of 2 μM to 0.119 nM or 0.017 nM is covered. If necessary the initial concentration of 2 μM is changed to 50 μM, 10 μM or 0.4 μM or 0.2857 μM and further dilution is carried out accordingly. The final concentration of DMSO is 5%. 10 μL/well of the B-Raf (V600E)-kinase solution are pipetted in (containing 0.5 ng B-Raf (V600E)-kinase (e.g. from Upstate) in 20 mM Tris-HCl pH 7.5, 0.1 mM EDTA, 0.1 mM EGTA, 0.286 mM sodium orthovanadate, 10% glycerol, 1 mg/mL bovine serum albumin, 1 mM dithiothreitol) and the mixture is incubated for 1 h at RT under with shaking. The kinase reaction is started by the addition of 20 μL/well ATP solution [final concentration: 250 μM ATP, 30 mM Tris-HCl pH 7.5, 0.02% Brij, 0.2 mM sodium orthovanadate, 10 mM magnesium acetate, 0.1 mM EGTA, phosphatase cocktail (Sigma, #P2850, dilution recommended by the manufacturer)] and 10 μL/well MEK1 solution [containing 50 ng biotinylated MEK1 (prepared from purified MEK1 according to standard procedure, e.g. with EZ-Link Sulpho-NHS-LC-Biotin reagent, Pierce, #21335)] and carried out for 60 min at RT with constant shaking. The reaction is stopped by the addition of 12 μL/well of a 100 mM EDTA solution and incubation is continued for a further 5 min. 55 μL/well of the reaction solution are transferred into a streptavidin-coated plate (e.g. Streptawell HighBond, Roche, #11989685001) and shaken gently for 1 h at RT, in order to bind biotinylated MEK1 to the plate. After elimination of the liquid the plate is washed five times with 200 μL/well of 1×PBS and 100 μL/well solution of primary antibody plus europium-labelled secondary antibody [Anti Phospho-MEK (Ser217/221), Cell Signaling, #9121 and Eu-N1 labelled goat-anti-rabbit antibody, Perkin Elmer, #AD0105] is added, the primary antibody is diluted 1:2000 and the secondary antibody is diluted to 0.4-0.5 μg/mL in Delfia Assay Buffer (Perkin Elmer, #1244-111). After 1 h shaking at RT the solution is poured away and washed five times with 200 μL/well Delfia Wash Buffer (Perkin Elmer, #4010-0010/#1244-114). After the addition of 200 μL/well Enhancement Solution (Perkin Elmer, #4001-0010/#1244-105) the mixture is shaken for 10 min at RT and then measured in a Wallac Victor using the program “Delfia Time Resolved Fluorescence (Europium)”. IC50 values are obtained from these dosage-activity curves using a software program (GraphPadPrizm).

Sequence of B-Raf (V600E)-kinase (P15056 whole entry V600E): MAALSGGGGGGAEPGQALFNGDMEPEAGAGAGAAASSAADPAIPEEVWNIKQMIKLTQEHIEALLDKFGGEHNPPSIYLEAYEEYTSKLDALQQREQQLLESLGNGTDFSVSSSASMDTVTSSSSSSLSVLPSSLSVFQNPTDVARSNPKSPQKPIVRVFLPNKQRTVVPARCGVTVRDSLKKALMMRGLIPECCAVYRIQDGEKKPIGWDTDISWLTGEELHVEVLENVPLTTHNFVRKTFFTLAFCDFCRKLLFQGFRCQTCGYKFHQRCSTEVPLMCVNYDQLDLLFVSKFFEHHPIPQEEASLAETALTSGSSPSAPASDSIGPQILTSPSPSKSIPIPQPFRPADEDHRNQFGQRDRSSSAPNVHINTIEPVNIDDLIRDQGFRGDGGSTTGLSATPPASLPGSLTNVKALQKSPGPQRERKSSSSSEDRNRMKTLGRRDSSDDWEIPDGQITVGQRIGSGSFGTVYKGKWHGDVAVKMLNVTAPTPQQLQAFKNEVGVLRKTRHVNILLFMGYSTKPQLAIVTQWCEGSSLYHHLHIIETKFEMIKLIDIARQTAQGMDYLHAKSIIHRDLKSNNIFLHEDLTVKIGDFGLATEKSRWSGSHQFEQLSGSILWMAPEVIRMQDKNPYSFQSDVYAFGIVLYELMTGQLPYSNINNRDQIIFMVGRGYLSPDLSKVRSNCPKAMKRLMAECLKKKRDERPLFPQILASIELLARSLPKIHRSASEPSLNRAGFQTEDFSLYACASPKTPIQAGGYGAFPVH

SMILES: Cc1ccc(C(=O)Nc2cc(C(C)(C)C)on2)cc1-n1cc(-c2cncc(NC3CC3)c2)nn1 [I-28]
- IC50: 10 nM

SMILES: Cc1ccc(C(=O)Nc2cc(C(C)(C)C)on2)cc1-n1cc(-c2cncc(N3CCCN(C)CC3)c2)nn1 [I-91]
- IC50: 8 nM

SMILES: Cc1ccc(C(=O)Nc2cc(C(C)(C)C)on2)cc1-n1cc(-c2cncc(NC3CCOCC3)c2)nn1 [I-38]
- IC50: 10 nM

SMILES: COCCNc1cncc(-c2cn(-c3cc(C(=O)Nc4cc(C(C)(C)C)on4)ccc3C)nn2)c1 [I-36]
- IC50: 16 nM

SMILES: Cc1ccc(C(=O)Nc2cc(C(C)(C)C)on2)cc1-n1cc(-c2cncc(NCC3CCCO3)c2)nn1 (stereo not shown) [I-34]
- IC50: 9 nM

SMILES: Cc1ccc(C(=O)Nc2cc(C(C)(C)C)on2)cc1-n1cc(-c2cncc(NC3CCOC3)c2)nn1 (stereo not shown) [I-11]
- IC50: 6 nM

SMILES: Cc1ccc(C(=O)Nc2cc(C(C)(C)C)on2)cc1-n1cc(-c2cncc(N(C)C3CCOCC3)c2)nn1 [I-29]
- IC50: 7 nM

SMILES: Cc1ccc(C(=O)Nc2cc(C(F)(F)F)ccn2)cc1-n1cc(-c2cncc(N(C)C3CCN(C)C3)c2)nn1 (stereo not shown) [I-78]
- IC50: 4 nM

SMILES: Cc1ccc(C(=O)Nc2cc(C(F)(F)F)ccn2)cc1-n1cc(-c2cncc(N3CCN(C)CC3)c2)nn1 [I-83]
- IC50: 7 nM

SMILES: CCN1CCN(c2cncc(-c3cn(-c4cc(C(=O)Nc5cc(C(F)(F)F)ccn5)ccc4C)nn3)c2)CC1 [I-87]
- IC50: 7 nM

SMILES: Cc1ccc(C(=O)Nc2cc(C(F)(F)F)ccn2)cc1-n1cc(-c2cncc(N(C)C)c2)nn1 [I-62]
- IC50: 24 nM

SMILES: CCN1CCC2(CCN(c3cncc(-c4cn(-c5cc(C(=O)Nc6cc(C(C)(C)C)on6)ccc5C)nn4)c3)C2)C1 (stereo not shown) [I-7]
- IC50: 9 nM

SMILES: Cc1ccc(NC(=O)c2cc(C(F)(F)F)ccn2)cc1-n1cc(-c2cncc(N3CCN(C)CC3)c2)nn1 [II-7]
- IC50: 4 nM

SMILES: Cc1ccc(C(=O)Nc2cc(C(C)(C)C)on2)cc1-n1cc(-c2cncc(N3CCN(C(C)C)C(C)C3)c2)nn1 (stereo not shown) [I-37]
- IC50: 20 nM

SMILES: Cc1ccc(C(=O)Nc2cc(C(C)(C)C)on2)cc1-n1cc(-c2cncc(N(C)C(C)C)c2)nn1 [I-35]
- IC50: 45 nM

SMILES: Cc1ccc(NC(=O)c2cc(CN3CCN(C)CC3)c(C(C)(C)C)o2)cc1-n1cc(-c2cncc(N3CCOCC3)c2)nn1 [II-42]
- IC50: 16 nM

SMILES: Cc1ccc(NC(=O)c2cc(C(F)(F)F)ccn2)cc1-n1cc(-c2cncc(N3CCOCC3)c2)nn1 [II-1]
- IC50: 9 nM

SMILES: Cc1ccc(NC(=O)c2cc(C(C)(C)C)nn2C)cc1-n1cc(-c2cncc(N3CCN(C)CC3)c2)nn1 [II-6]
- IC50: 8 nM

SMILES: Cc1ccc(C(=O)Nc2cc(C(C)(C)C)on2)cc1-n1cc(-c2cncc(N3CCCCC3)c2)nn1 [I-42]
- IC50: 61 nM

SMILES: COCCCN1CCN(c2cncc(-c3cn(-c4cc(NC(=O)c5ccc(C(C)(C)C)o5)ccc4C)nn3)c2)CC1 [II-17]
- IC50: 1 nM

SMILES: Cc1ccc(C(=O)Nc2cc(C(F)(F)F)ccn2)cc1-n1cc(-c2cncc(N(C)CCN(C)C)c2)nn1 [I-86]
- IC50: 10 nM

SMILES: Cc1ccc(C(=O)Nc2cc(C(F)(F)F)ccn2)cc1-n1cc(-c2cncc(N3CCCCC3)c2)nn1 [I-64]
- IC50: 69 nM

SMILES: Cc1ccc(C(=O)Nc2cc(C(F)(F)F)ccn2)cc1-n1cc(-c2cncc(NCC3CCCO3)c2)nn1 (stereo not shown) [I-58]
- IC50: 11 nM

SMILES: Cc1ccc(C(=O)Nc2cc(C(C)(C)C)on2)cc1-n1cc(-c2cncc(N3CCOCC3)c2)nn1 [I-47]
- IC50: 10 nM

SMILES: Cc1ccc(C(=O)Nc2cc(C(F)(F)F)ccn2)cc1-n1cc(-c2cncc(N3CC[C@@H](N(C)C)C3)c2)nn1 [I-80]
- IC50: 15 nM

SMILES: CCCN1CCN(c2cncc(-c3cn(-c4cc(C(=O)Nc5cc(C(C)(C)C)on5)ccc4C)nn3)c2)CC1 [I-41]
- IC50: 8 nM

SMILES: Cc1ccc(NC(=O)c2ccc(C(C)(C)C)o2)cc1-n1cc(-c2cncc(N3CCNCC3)c2)nn1 [II-21]
- IC50: 1 nM

SMILES: COCCN(C)c1cncc(-c2cn(-c3cc(C(=O)Nc4cc(C(F)(F)F)ccn4)ccc3C)nn2)c1 [I-73]
- IC50: 34 nM

SMILES: Cc1ccc(C(=O)Nc2cc(C(F)(F)F)ccn2)cc1-n1cc(-c2cncc(N3CCC3)c2)nn1 [I-57]
- IC50: 16 nM

SMILES: Cc1ccc(C(=O)Nc2cc(C(F)(F)F)ccn2)cc1-n1cc(-c2cncc(NC3CCOCC3)c2)nn1 [I-81]
- IC50: 10 nM

SMILES: Cc1ccc(NC(=O)c2cc(C)n(C(C)(C)C)n2)cc1-n1cc(-c2cncc(N3CCN(C)CC3)c2)nn1 [II-38]
- IC50: 11 nM

SMILES: Cc1ccc(C(=O)Nc2cc(C(F)(F)F)ccn2)cc1-n1cc(-c2cncc(N3CCOCC3)c2)nn1 [I-72]
- IC50: 12 nM

SMILES: CNc1cncc(-c2cn(-c3cc(C(=O)Nc4cc(C(C)(C)C)on4)ccc3C)nn2)c1 [I-30]
- IC50: 14 nM

SMILES: Cc1ccc(C(=O)Nc2cc(C(F)(F)F)ccn2)cc1-n1cc(-c2cncc(NC3CC3)c2)nn1 [I-66]
- IC50: 44 nM

SMILES: Cc1ccc(C(=O)Nc2cc(C(C)(C)C)on2)cc1-n1cc(-c2cncc(N3CC(C)NC(C)C3)c2)nn1 (stereo not shown) [I-32]
- IC50: 9 nM

SMILES: Cc1ccc(C(=O)Nc2cc(C(C)(C)C)on2)cc1-n1cc(-c2cncc(N3CCN(C4CC4)CC3)c2)nn1 [I-26]
- IC50: 28 nM

SMILES: Cc1ccc(C(=O)Nc2cc(C(C)(C)C)on2)cc1-n1cc(-c2cncc(N3CCC(N4CCN(C)CC4)C3)c2)nn1 (stereo not shown) [I-89]
- IC50: 6 nM

SMILES: Cc1ccc(C(=O)Nc2cc(C(F)(F)F)ccn2)cc1-n1cc(-c2cncc(N(C)CCN3CCCC3)c2)nn1 [I-65]
- IC50: 9 nM

SMILES: Cc1ccc(NC(=O)c2cc(CNC(C)C)c(C(C)(C)C)o2)cc1-n1cc(-c2cncc(N3CCOCC3)c2)nn1 [II-2]
- IC50: 14 nM

SMILES: C=CCN1CCN(c2cncc(-c3cn(-c4cc(NC(=O)c5ccc(C(C)(C)C)o5)ccc4C)nn3)c2)CC1 [II-18]
- IC50: 5 nM

SMILES: Cc1ccc(C(=O)Nc2cc(C(C)(C)C)nn2C)cc1-n1cc(-c2cncc(N3CCN(C)CC3)c2)nn1 [I-55]
- IC50: 16 nM

SMILES: Cc1ccc(NC(=O)c2cc(CNCCN(C)C)c(C(C)(C)C)o2)cc1-n1cc(-c2cncc(N3CCOCC3)c2)nn1 [II-45]
- IC50: 10 nM

SMILES: COCCN1C(C)CN(c2cncc(-c3cn(-c4cc(C(=O)Nc5cc(C(C)(C)C)on5)ccc4C)nn3)c2)CC1C (stereo not shown) [I-45]
- IC50: 29 nM

SMILES: Cc1ccc(C(=O)Nc2cc(C(F)(F)F)ccn2)cc1-n1cc(-c2cncc(N(C)CC3CCCO3)c2)nn1 (stereo not shown) [I-59]
- IC50: 44 nM

SMILES: Cc1ccc(NC(=O)c2cc(C(C)(C)C)nn2C)cc1-n1cc(-c2cncc(N3CCOCC3)c2)nn1 [II-4]
- IC50: 11 nM

SMILES: Cc1ccc(C(=O)Nc2cc(C(C)(C)C)on2)cc1-n1cc(-c2cncc(N(C)CC3CCCO3)c2)nn1 (stereo not shown) [I-25]
- IC50: 45 nM

SMILES: Cc1ccc(C(=O)Nc2cc(C(F)(F)F)ccn2)cc1-n1cc(-c2cncc(NC3CCN(C)CC3)c2)nn1 [I-76]
- IC50: 21 nM

SMILES: Cc1ccc(C(=O)Nc2cc(C(C)(C)C)on2)cc1-n1cc(-c2cncc(NCCF)c2)nn1 [I-22]
- IC50: 16 nM

SMILES: Cc1ccc(NC(=O)c2ccc(C(C)(C)C)s2)cc1-n1cc(-c2cncc(N3CCN(CC4CC4)CC3)c2)nn1 [II-31]
- IC50: 8 nM

SMILES: Cc1ccc(NC(=O)c2cc(C)n(C(C)(C)C)n2)cc1-n1cc(-c2cncc(N3CCOCC3)c2)nn1 [II-9]
- IC50: 18 nM

SMILES: Cc1ccc(NC(=O)c2ccc(C(C)(C)C)o2)cc1-n1cc(-c2cncc(N3CCN(C)CC3)c2)nn1 [II-15]
- IC50: 2 nM

SMILES: Cc1ccc(C(=O)Nc2cc(C(F)(F)F)ccn2)cc1-n1cc(-c2cncc(NC3CCN(C)C3)c2)nn1 (stereo not shown) [I-63]
- IC50: 6 nM

SMILES: CCN1CCN(c2cncc(-c3cn(-c4cc(NC(=O)c5cc(C)n(C(C)(C)C)n5)ccc4C)nn3)c2)CC1 [II-35]
- IC50: 10 nM

SMILES: Cc1ccc(NC(=O)c2cc(C(C)(C)C)on2)cc1-n1cc(-c2cncc(N3CCN(C)CC3)c2)nn1 [II-8]
- IC50: 5 nM

SMILES: Cc1ccc(C(=O)Nc2cc(C(C)(C)C)on2)cc1-n1cc(-c2cncc(N3CCC3)c2)nn1 [I-19]
- IC50: 11 nM

SMILES: CCOCCN1CCN(c2cncc(-c3cn(-c4cc(NC(=O)c5ccc(C(C)(C)C)o5)ccc4C)nn3)c2)CC1 [II-22]
- IC50: 7 nM

SMILES: COCC(C)Nc1cncc(-c2cn(-c3cc(C(=O)Nc4cc(C(C)(C)C)on4)ccc3C)nn2)c1 (stereo not shown) [I-20]
- IC50: 31 nM

SMILES: Cc1ccc(C(=O)Nc2cc(C(C)(C)C)on2)cc1-n1cc(-c2cncc(NC3CCCC3)c2)nn1 [I-43]
- IC50: 38 nM

SMILES: Cc1ccc(C(=O)Nc2cc(C(F)(F)F)ccn2)cc1-n1cc(-c2cncc(N3CC[C@H](N(C)C)C3)c2)nn1 [I-79]
- IC50: 9 nM

SMILES: Cc1ccc(NC(=O)c2cc(C)n(C(C)(C)C)n2)cc1-n1cc(-c2cncc(N3CCN(C(C)C)CC3)c2)nn1 [II-36]
- IC50: 13 nM

SMILES: Cc1ccc(C(=O)Nc2cc(C(C)(C)C)on2)cc1-n1cc(-c2cncc(N(C)C3CCOC3)c2)nn1 (stereo not shown) [I-10]
- IC50: 8 nM
